Entries after “also recorded” stand apart in the source; their conditions may differ.

The results in this text go back to patent US11065277B2, “Method of ameliorating side effects of sickle cell disease treatments” (ALBERT EINSTEIN COLLEGE OF MEDICINE, priority 2015, dated 2021).

Data set [1] relates to BERK low gamma. Description: Systemic vaso-occlusion and systemic flow in low gamma BERK. Type of data set: in vivo, mouse. The source says:
(§1) Just as with supra-perfusion therapy, a sickle therapy induced toxicity is apparent in the quercetin-based antioxidant therapy of sickle cell disease. […] However, this nearly complete clearance of the vaso-occlusion appears to induces a toxicity to such treated low gamma BERK, as the animal die after six to eight hrs. after infusing quercetin. Accordingly, it was concluded that antisickling, or antioxidant or antiadhesive therapies, need to be combined with anti-anemia therapy to protect the brain tissues from hypoxic effects as the systemic perfusion is improved as vasoconstrictive effects are reduced.
(§2) A lower dosage of the therapeutic that only marginally reduces the severity of the disease as reflected by systemic vaso-occlusion can still moderate the severity of the disease to some degree without creating an oxygen debt in the brain (i.e. the pathology of the disease as reflected by CBF and BOLD, in an organ specific manner).

A short description of data set [2]: Plasma level after 10% top load infusion. The class given is in vivo, mouse. The note with it: low gamma BERK mice, infusion of 6 gm % solution at 10% top load. The source says:
Infusion of a 6 gm % solution EAF P3K6 Hb to a low gamma BERK mice at 10% top load results in a presence of 0.3 gm/dl EAF P3K6 Hb in the plasma, the HbS in the RBC being 8 gm/dl.

The test system of data set [3] is BERK mice. Description: BOLD-RHO (BOLD MRI response to hyperoxia, gray matter). Type of data set: in vivo, mouse. Here is the method:
BL=baseline, PI=post injection. […] Using BOLD MRI imaging (which is sensitive to the tissue concentration of deoxy-Hb) the sufficiency of oxygenation of cerebral tissues was measured by assessing the change in deoxy-Hb which occurs with administration of a short inhalation bolus of 100% O2.

In data set [4] the test system is BERK mice. As to the kind of experiment: Intravital microscopy of the systemic circulation (shear rate, volumetric flow rate, leukocyte adhesion, sickling). Type of data set: in vivo, mouse.
Data set [5] relates to BERK mice. Description: Cerebral blood flow (CBF) after treatment. The class given is in vivo, mouse.
Data set [6] concerns BERK low gamma. The note with it: mouse, in vivo, ip.
Description: as §1, §2

Setting [7] is: BERK mice, post injection vs baseline, 10% top-load.
Where [8] appears, read: low gamma BERK, daily oral dosing 100/mg per/kg for 10 days.
[9] abbreviates: BERK low gamma, 50 mg/kg intraperitoneal three times a week.
The mark [10] stands for this setting: low gamma BERK, single dose 20 mg/kg intraperitoneally, three hrs. after infusion.

Regarding `O=c1c2cc(O)c(O)cc2oc2cc(O)c([C@@H]3O[C@H](CO)[C@@H](O)[C@H](O)[C@H]3O)c(O)c12` [mangiferine, reference compound], the “therapeutic efficacy for SCD (vaso-occlusion)” value in data set [1] (BERK low gamma) is reported as “not seen”.

“EAF-PEG-Hb: extension arm facilitated hemoglobin molecule having 6 molecules of 3,000 mw polyethylene glycol (PEG) attached thereto”: in data set [2], the “presence in the plasma” value is reported as 0.3 gm/dl. The “BOLD-RHO (hypoxic stress, brain deoxy-Hb response to hyperoxia)” value in data set [3] (setting [7]) is “No drop in brain deoxy-Hb was detected; also recorded: protected against the decrease in CBF”. The “Volumetric flow rate / systemic (peripheral) tissue blood flow” value in data set [4] (BERK / sickle transgenic mice, after 10% topload) is given as “still increased”. Also, the “Leukocyte adhesion in systemic post capillary venules” value in data set [4] (sickle transgenic animals, systemic circulation) is given as “still reduced”. For the same molecule, the CBF result in data set [5] (setting [7]) is “drop in CBF; also recorded: decreased”; in data set [5] (low gamma BERK mice, 6 gm % solution at 10% top load) it was “normalize the CBF”.

As to `O=c1c(O)c(-c2ccc(O)c(O)c2)oc2cc(O)cc(O)c12` [quercetin, 2-(3,4-dihydroxyphenyl)-3,5,7-trihydroxy-4H-chromen-4-one], the toxicity to animals result in data set [6] (50 mg/kg) is on record as “not toxic”. Also, the “time of death after infusing” value in data set [6] (200 mg/kg) is listed as “six to eight”. In data set [3] (setting [8]), the “influence on BOLD” value is reported as “without any significant influence”. For the same molecule, the “therapeutic efficacy for SCD (vaso-occlusion)” value in data set [1] (BERK low gamma) is reported as “dose dependent”. For the same molecule, the vaso-occlusion result is given as “small attenuation” in data set [1] (setting [9]) and “nearly completely attenuated” in data set [1] (BERK low gamma, 200 mg/kg intraperitoneal, measured 3 hrs after infusion). The “improvement of systemic circulation” value in data set [1] (setting [8]) is 60 to 70%. For the same molecule, the results for the “influence on CBF” value in data set [5] (setting [9]) and in data set [5] (setting [8]) were “very little influence” and “without any significant influence”, respectively.

Regarding `NC(=O)NO` [hydroxy urea, reference compound], in data set [1] (setting [10]), the “expression of fetal Hb” value is recorded as “without any expression”, the systemic flow result was “significant improvement” and the vaso-occlusion result was “level close to that of medium gamma BERK”.
